Measured values as given in ChEMBL document CHEMBL4507317, “Data for DCP probe BAY-899” (2021).

What was measured:
[1] = molecular target: Cannabinoid receptor 1 (Homo sapiens) (UniProt P21554); assay: CB1 Eurofins Bayer panel; conditions: Compound concentration 10.0 uM
[2] = molecular target: Adenosine receptor A3 (Homo sapiens) (UniProt P0DMS8); assay: A3 Eurofins Bayer panel; conditions: Compound concentration 10.0 uM
[3] = molecular target: 5-hydroxytryptamine receptor 6 (Homo sapiens) (UniProt P50406); assay: 5-HT6 Eurofins Bayer panel; conditions: Compound concentration 10.0 uM
5-hydroxytryptamine receptor 6 (Homo sapiens), sequence (P50406 whole entry): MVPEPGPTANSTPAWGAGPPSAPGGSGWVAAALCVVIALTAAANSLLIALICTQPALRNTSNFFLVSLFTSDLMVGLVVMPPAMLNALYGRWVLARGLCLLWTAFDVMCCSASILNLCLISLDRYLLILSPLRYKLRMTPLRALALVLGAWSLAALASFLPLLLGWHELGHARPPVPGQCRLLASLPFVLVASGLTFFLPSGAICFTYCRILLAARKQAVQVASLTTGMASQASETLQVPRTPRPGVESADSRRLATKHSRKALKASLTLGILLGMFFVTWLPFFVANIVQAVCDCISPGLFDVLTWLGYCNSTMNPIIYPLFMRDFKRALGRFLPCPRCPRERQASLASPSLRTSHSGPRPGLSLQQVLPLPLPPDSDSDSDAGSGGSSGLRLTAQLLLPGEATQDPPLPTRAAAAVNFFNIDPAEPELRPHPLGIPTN

[4] = molecular target: Somatostatin receptor type 4 (Homo sapiens) (UniProt P31391); assay: sst4 Eurofins Bayer panel; conditions: Compound concentration 10.0 uM
Somatostatin receptor type 4 (Homo sapiens), sequence (P31391 whole entry): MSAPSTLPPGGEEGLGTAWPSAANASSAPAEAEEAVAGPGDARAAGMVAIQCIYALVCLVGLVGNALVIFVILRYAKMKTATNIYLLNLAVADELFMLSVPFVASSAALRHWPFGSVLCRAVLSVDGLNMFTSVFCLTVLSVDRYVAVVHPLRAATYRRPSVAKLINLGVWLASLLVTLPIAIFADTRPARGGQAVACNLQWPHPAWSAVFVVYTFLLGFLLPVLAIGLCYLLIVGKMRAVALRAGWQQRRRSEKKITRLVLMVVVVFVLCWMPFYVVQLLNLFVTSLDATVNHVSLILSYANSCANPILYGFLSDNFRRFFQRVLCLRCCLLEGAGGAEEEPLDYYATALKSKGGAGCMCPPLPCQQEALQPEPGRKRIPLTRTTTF

[5] = molecular target: Histamine H2 receptor (Homo sapiens) (UniProt P25021); assay: H2 Eurofins Bayer panel; conditions: Compound concentration 10.0 uM
Histamine H2 receptor (Homo sapiens), sequence (P25021 whole entry): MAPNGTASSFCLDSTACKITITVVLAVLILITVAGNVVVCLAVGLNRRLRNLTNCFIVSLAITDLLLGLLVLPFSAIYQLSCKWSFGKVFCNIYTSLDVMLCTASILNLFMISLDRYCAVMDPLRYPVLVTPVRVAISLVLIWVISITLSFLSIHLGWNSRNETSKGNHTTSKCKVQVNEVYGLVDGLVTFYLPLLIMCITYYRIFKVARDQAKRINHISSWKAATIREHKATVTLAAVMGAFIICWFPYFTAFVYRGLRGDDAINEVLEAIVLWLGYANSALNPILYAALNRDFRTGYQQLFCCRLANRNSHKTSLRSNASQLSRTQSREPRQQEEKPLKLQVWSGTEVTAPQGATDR

[6] = molecular target: Melanocortin receptor 4 (Homo sapiens) (UniProt P32245); assay: MC4 Eurofins Bayer panel; conditions: Compound concentration 10.0 uM
Melanocortin receptor 4 (Homo sapiens), sequence (P32245 whole entry): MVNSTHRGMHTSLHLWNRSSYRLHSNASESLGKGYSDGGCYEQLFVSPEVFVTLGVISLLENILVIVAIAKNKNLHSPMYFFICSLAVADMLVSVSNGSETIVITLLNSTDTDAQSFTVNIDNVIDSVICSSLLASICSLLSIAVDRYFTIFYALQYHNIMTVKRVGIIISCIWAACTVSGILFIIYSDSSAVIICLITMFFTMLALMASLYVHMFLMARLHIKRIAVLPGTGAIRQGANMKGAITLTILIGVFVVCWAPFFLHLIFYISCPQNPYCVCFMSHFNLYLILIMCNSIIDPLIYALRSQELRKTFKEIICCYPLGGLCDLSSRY

[7] = molecular target: Mitogen-activated protein kinase kinase kinase 20 (Homo sapiens) (UniProt Q9NYL2); conditions: Compound concentration 1000.0 nM
Mitogen-activated protein kinase kinase kinase 20 (Homo sapiens), sequence (Q9NYL2 2-800 limits assumed): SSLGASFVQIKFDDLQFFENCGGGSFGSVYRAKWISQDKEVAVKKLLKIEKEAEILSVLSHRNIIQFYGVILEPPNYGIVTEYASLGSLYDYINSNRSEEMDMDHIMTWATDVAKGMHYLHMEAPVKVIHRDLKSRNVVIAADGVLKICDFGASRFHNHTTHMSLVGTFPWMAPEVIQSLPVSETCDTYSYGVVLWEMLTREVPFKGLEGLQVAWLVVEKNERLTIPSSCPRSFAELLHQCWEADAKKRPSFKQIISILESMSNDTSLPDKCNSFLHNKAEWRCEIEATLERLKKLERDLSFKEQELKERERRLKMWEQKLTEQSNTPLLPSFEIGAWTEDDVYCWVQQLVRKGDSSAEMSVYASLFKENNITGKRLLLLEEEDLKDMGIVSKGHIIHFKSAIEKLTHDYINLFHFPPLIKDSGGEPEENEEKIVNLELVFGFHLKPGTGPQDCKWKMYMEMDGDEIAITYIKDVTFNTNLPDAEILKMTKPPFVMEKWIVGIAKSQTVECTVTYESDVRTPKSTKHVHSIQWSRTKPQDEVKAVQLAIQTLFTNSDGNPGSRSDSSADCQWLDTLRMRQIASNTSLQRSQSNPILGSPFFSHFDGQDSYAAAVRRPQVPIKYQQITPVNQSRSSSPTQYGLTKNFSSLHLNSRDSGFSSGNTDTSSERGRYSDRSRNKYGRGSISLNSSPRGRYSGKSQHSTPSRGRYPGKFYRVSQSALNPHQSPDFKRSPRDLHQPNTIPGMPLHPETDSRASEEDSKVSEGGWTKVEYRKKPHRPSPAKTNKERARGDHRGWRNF

[8] = molecular target: 5-hydroxytryptamine receptor 7 (Homo sapiens) (UniProt P34969); conditions: Compound concentration 10.0 uM
[9] = molecular target: Mu-type opioid receptor (Homo sapiens) (UniProt P35372); assay: mu (MOP) Eurofins Bayer panel; conditions: Compound concentration 10.0 uM
[10] = molecular target: T1, Alpha-2A adrenergic receptor (Homo sapiens) (UniProt P08913); assay: alpha 2A Eurofins Bayer panel; conditions: Compound concentration 10.0 uM
T1 sequence (whole entry): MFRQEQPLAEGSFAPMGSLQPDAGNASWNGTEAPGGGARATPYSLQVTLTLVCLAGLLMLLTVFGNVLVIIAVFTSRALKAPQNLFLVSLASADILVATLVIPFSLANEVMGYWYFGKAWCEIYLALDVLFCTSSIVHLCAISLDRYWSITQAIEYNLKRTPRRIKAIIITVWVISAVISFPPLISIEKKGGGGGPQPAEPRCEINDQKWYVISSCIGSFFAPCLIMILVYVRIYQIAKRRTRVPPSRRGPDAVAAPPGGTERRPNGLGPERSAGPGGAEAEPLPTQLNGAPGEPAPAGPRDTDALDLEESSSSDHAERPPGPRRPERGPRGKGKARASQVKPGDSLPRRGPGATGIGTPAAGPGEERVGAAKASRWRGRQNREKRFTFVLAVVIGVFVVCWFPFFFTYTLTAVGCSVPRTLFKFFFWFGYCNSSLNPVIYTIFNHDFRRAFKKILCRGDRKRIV

[11] = molecular target: D(2) dopamine receptor (Homo sapiens) (UniProt P14416); assay: D2L Eurofins Bayer panel; conditions: Compound concentration 10.0 uM
D(2) dopamine receptor (Homo sapiens), sequence (P14416 whole entry): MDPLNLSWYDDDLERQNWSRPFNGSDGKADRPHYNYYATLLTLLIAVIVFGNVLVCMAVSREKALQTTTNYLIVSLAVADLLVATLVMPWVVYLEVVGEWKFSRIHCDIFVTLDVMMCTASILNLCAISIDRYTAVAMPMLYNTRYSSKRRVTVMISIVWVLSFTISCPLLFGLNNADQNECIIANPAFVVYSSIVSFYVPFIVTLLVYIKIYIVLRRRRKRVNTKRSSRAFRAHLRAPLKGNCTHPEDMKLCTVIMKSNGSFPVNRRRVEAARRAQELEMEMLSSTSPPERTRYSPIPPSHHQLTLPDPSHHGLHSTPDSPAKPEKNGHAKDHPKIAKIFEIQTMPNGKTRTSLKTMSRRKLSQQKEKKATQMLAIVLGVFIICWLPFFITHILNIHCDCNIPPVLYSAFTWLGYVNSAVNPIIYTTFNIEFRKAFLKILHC

[12] = molecular target: Adenosine receptor A2b (Homo sapiens) (UniProt P29275); assay: A2B Eurofins Bayer panel; conditions: Compound concentration 10.0 uM
[13] = molecular target: T2, Muscarinic acetylcholine receptor M4 (Homo sapiens) (UniProt P08173); assay: M4 Eurofins Bayer panel; conditions: Compound concentration 10.0 uM
T2 sequence (whole entry): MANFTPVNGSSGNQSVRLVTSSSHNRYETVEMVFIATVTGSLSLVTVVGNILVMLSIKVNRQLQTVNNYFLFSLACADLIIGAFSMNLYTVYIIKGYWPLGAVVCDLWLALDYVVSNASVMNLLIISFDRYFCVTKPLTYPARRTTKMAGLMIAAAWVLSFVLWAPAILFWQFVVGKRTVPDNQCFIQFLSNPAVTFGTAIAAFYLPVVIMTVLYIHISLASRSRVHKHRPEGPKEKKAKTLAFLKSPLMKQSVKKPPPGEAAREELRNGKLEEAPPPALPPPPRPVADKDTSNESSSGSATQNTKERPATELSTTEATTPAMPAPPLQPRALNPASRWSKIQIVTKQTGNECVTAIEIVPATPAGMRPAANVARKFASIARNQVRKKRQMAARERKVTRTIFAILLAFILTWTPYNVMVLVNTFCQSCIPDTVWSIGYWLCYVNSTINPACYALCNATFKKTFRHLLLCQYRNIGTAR

[14] = molecular target: T3, Alpha-1A adrenergic receptor (Homo sapiens) (UniProt P35348); assay: alpha 1A Eurofins Bayer panel; conditions: Compound concentration 10.0 uM
T3 sequence (whole entry): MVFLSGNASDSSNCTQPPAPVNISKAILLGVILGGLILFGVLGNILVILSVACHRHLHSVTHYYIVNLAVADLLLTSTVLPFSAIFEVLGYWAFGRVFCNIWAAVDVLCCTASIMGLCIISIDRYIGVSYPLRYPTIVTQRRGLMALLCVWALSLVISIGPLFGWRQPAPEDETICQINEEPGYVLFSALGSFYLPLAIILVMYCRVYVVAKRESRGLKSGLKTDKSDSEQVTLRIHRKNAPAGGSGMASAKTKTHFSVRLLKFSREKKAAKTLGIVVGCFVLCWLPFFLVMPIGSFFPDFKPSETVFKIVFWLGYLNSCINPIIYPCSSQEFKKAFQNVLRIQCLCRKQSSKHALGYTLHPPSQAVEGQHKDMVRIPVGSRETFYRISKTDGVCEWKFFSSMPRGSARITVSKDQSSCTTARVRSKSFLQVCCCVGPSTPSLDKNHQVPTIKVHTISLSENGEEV

[15] = molecular target: Dual specificity mitogen-activated protein kinase kinase 6 (Homo sapiens) (UniProt P52564); conditions: Compound concentration 1000.0 nM
Dual specificity mitogen-activated protein kinase kinase 6 (Homo sapiens), sequence (P52564 whole entry): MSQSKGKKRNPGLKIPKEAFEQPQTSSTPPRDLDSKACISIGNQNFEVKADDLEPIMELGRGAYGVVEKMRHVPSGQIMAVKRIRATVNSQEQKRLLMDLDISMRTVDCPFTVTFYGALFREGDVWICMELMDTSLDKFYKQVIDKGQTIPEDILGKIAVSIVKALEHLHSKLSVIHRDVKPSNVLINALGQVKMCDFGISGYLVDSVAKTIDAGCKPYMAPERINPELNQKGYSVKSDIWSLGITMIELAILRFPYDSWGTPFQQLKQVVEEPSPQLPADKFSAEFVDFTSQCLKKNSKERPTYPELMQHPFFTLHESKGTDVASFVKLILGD

[16] = molecular target: D(1A) dopamine receptor (Homo sapiens) (UniProt P21728); assay: D1 Eurofins Bayer panel; conditions: Compound concentration 10.0 uM
D(1A) dopamine receptor (Homo sapiens), sequence (P21728 whole entry): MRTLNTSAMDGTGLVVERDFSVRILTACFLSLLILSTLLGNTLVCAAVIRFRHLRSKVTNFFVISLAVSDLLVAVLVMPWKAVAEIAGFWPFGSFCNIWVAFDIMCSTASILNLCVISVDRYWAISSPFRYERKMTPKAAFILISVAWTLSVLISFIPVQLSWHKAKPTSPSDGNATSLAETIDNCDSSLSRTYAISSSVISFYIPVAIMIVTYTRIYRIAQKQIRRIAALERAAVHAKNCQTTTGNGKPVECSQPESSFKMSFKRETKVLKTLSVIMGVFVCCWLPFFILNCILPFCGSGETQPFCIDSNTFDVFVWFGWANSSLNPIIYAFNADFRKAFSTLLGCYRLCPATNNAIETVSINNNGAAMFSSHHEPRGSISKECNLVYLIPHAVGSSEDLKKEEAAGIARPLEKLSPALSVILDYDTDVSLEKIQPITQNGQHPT

[17] = molecular target: Beta-1 adrenergic receptor (Homo sapiens) (UniProt P08588); assay: beta 1 Eurofins Bayer panel; conditions: Compound concentration 10.0 uM
[18] = tested on: Epidermal growth factor receptor (Homo sapiens), P00533 [L858R,T790M]; conditions: Compound concentration 1000.0 nM
[19] = molecular target: Beta-2 adrenergic receptor (Homo sapiens) (UniProt P07550); assay: beta 2 Eurofins Bayer panel; conditions: Compound concentration 10.0 uM
Beta-2 adrenergic receptor (Homo sapiens), sequence (P07550 whole entry, looked up): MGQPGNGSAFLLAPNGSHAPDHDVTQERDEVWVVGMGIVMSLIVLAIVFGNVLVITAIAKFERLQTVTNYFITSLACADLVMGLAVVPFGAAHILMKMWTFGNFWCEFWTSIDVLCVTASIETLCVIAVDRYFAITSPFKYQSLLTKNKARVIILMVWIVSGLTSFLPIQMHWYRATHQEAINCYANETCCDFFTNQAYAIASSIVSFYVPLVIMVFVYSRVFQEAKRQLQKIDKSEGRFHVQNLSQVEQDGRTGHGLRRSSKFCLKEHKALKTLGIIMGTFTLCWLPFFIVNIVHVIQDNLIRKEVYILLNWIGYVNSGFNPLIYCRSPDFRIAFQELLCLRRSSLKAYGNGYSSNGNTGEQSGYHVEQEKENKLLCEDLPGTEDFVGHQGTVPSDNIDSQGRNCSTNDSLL

[20] = molecular target: T4, 5-hydroxytryptamine receptor 2B (Homo sapiens, UniProt P41595); assay: 5-HT2B Eurofins Bayer panel; conditions: Compound concentration 10.0 uM
T4 sequence (P41595 whole entry): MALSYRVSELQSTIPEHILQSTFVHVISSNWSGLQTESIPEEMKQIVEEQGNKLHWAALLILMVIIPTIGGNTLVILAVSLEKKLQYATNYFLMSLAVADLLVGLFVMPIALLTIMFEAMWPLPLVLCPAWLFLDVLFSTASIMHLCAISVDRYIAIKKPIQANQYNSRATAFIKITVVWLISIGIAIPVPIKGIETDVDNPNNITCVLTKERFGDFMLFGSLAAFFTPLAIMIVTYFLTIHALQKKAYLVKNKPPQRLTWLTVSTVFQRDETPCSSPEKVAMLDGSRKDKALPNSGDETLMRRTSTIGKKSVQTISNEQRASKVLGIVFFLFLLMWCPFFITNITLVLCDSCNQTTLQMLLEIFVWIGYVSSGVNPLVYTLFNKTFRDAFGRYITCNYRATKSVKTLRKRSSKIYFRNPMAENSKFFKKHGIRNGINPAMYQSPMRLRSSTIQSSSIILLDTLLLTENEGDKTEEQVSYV

[21] = molecular target: Substance-P receptor (Homo sapiens) (UniProt P25103); assay: NK1 Eurofins Bayer panel; conditions: Compound concentration 10.0 uM
Substance-P receptor (Homo sapiens), sequence (P25103 whole entry): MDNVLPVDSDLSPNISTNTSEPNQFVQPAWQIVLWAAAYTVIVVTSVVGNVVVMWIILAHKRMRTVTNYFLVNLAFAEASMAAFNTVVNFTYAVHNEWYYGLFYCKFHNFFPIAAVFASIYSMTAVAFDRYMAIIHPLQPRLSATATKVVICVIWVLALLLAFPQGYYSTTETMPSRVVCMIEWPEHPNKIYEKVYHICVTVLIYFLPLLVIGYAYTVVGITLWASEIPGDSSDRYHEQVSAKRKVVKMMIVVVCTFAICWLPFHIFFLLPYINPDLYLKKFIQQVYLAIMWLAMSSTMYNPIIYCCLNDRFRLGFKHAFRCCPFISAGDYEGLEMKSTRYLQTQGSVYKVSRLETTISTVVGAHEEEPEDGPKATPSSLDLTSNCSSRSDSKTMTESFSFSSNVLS

[22] = molecular target: Bone morphogenetic protein receptor type-1B (Homo sapiens) (UniProt O00238); conditions: Compound concentration 1000.0 nM
[23] = tested on: Receptor-type tyrosine-protein kinase FLT3 (Homo sapiens), P36888 [K663Q]; conditions: Compound concentration 1000.0 nM
[24] = molecular target: Muscarinic acetylcholine receptor M3 (Homo sapiens) (UniProt P20309); conditions: Compound concentration 10.0 uM
[25] = molecular target: Lutropin-choriogonadotropic hormone receptor (Homo sapiens, UniProt P22888); assay: Cell-based assay (LH Antagonism)
[26] = molecular target: T4, 5-hydroxytryptamine receptor 2B; assay: GPCRScan assay: inhibition of 5-HT2B; set-up: radioligand conc. used [nm] 1.0 – 2.0, parental cells stable HEK

## O=C(Nc1cnc(Oc2ccc(F)cc2)nc1)N1CCc2ncccc2[C@@H]1c1ccc(F)cc1 [BAY-899]
[1]
  Activation (% of control): 52%
  Inhibition (% of control): 4%
[2]
  Activation (% of control): 25%
  Inhibition (% of control): -6%
[3]
  Activation (% of control): -1%
  Inhibition (% of control): 12%
[4]
  Activation (% of control): 23%
  Inhibition (% of control): 6%
[5]
  Activation (% of control): -2%
  Inhibition (% of control): 34%
[6]
  Activation (% of control): -2%
  Inhibition (% of control): 11%
[7]
  residual activity: 100%
[8]
  inhibition: 2.63%
[9]
  Activation (% of control): 56%
  Inhibition (% of control): 8%
[10]
  Activation (% of control): -2%
  Inhibition (% of control): -16%
[11]
  Activation (% of control): -1%
  Inhibition (% of control): 67%
[12]
  Activation (% of control): -1%
  Inhibition (% of control): 16%
[13]
  Activation (% of control): -6%
  Inhibition (% of control): 2%
[14]
  Activation (% of control): 2%
  Inhibition (% of control): 45%
[15]
  residual activity: 77%
[16]
  Activation (% of control): -1%
  Inhibition (% of control): 15%
[17]
  Activation (% of control): -1%
  Inhibition (% of control): 13%
[18]
  residual activity: 70%
[19]
  Activation (% of control): -3%
  Inhibition (% of control): 26%
[20]
  Activation (% of control): 1%
  Inhibition (% of control): 18%
[21]
  Activation (% of control): -3%
  Inhibition (% of control): 24%
[22]
  residual activity: 98%
[23]
  residual activity: 100%

## O=C(Nc1ccc(Oc2ccc(F)cc2)cc1)N1CCc2ncccc2[C@H]1c1ccc(F)cc1 [BAY-897]
[7]
  residual activity: 100%
[24]
  inhibition: -3.47%
[15]
  residual activity: 100%
[25]
  IC50: > 16 µM (not active)
[18]
  residual activity: 71%
[26]
  Ki: 5.25 µM
[22]
  residual activity: 87%
